Our source for the kinact/Ki values is ChEMBL document CHEMBL6078631, “Covalent inhibitors meet epigenetics: New opportunities” (Eur J Med Chem, 2024).

SMILES strings stand for the structures.

For this assay, the target named is RNA cytosine C(5)-methyltransferase NSUN2 (Homo sapiens) (UniProt Q08J23). The experiment in a line: Binding affinity to human NSUN2 assessed as ratio of kinact/Ki.
Sequence of RNA cytosine C(5)-methyltransferase NSUN2 (Homo sapiens) (Q08J23 whole entry): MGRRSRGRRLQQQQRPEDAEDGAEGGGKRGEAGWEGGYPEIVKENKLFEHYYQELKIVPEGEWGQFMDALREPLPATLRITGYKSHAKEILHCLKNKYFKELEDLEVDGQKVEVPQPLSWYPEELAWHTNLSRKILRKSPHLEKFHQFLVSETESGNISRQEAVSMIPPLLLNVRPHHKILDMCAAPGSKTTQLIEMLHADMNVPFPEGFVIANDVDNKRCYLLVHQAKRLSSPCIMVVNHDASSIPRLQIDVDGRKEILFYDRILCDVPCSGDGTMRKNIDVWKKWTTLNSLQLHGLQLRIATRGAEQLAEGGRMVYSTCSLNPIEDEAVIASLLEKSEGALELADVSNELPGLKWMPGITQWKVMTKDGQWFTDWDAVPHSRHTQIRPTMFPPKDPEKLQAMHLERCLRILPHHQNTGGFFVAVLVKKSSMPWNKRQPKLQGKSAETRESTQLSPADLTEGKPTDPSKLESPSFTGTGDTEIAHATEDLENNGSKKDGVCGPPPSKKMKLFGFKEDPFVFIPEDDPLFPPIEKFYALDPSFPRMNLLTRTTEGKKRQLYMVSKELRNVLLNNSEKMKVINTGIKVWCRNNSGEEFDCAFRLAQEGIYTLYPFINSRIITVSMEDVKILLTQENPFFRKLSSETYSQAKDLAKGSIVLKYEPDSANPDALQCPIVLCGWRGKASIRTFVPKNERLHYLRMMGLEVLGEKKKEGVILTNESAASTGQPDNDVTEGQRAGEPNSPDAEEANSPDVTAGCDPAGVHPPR

Consider `C=CC(=O)N1C[C@H](c2ccc(Br)cc2)[C@@H]1C(=O)Nc1cccc2cccnc12`, for which the kinact/Ki stood at 67 M⁻¹ s⁻¹.
